Tests used:
UACC-62 = assay: NCI human tumor cell panel: UACC-62 (Melanoma); type: cell-based; details: UACC-62, Melanoma; for GI50: read-out: Log10 GI50 (converted); for IC (TGI): read-out: Log10 TGI (converted)
HOP-62 = assay: NCI human tumor cell panel: HOP-62 (Non-Small Cell Lung Cancer); type: cell-based; details: HOP-62, Non-Small Cell Lung Cancer; for GI50: read-out: Log10 GI50 (converted); for IC (TGI): read-out: Log10 TGI (converted)
NCI-H322M = assay: cells; type: cell-based; details: Homo sapiens, Non-Small Cell Lung Cancer; for GI50: read-out: Log10 GI50 (converted); for IC (TGI): read-out: Log10 TGI (converted)
SK-MEL-28 = assay: NCI human tumor cell panel: SK-MEL-28 (Melanoma); type: cell-based; details: SK-MEL-28, Melanoma; for GI50: read-out: Log10 GI50 (converted); for IC (TGI): read-out: Log10 TGI (converted)
HT29 = assay: NCI human tumor cell panel: HT29 (Colon Cancer); type: cell-based; details: HT-29, HT29, Colon Cancer; for GI50: read-out: Log10 GI50 (converted); for IC (TGI): read-out: Log10 TGI (converted)
SN12C = assay: NCI human tumor cell panel: SN12C (Renal Cancer); type: cell-based; details: Renal Cancer; for GI50: read-out: Log10 GI50 (converted); for IC (TGI): read-out: Log10 TGI (converted)
T-47D = assay: NCI human tumor cell panel: T-47D (Breast Cancer); type: cell-based; details: T47D, Breast Cancer; for GI50: read-out: Log10 GI50 (converted); for IC (TGI): read-out: Log10 TGI (converted)
NCI-H226 = assay: NCI human tumor cell panel: NCI-H226 (Non-Small Cell Lung Cancer); type: cell-based; details: NCI-H226, Non-Small Cell Lung Cancer; for GI50: read-out: Log10 GI50 (converted); for IC (TGI): read-out: Log10 TGI (converted)
EKVX = assay: NCI human tumor cell panel: EKVX (Non-Small Cell Lung Cancer); type: cell-based; details: Non-Small Cell Lung Cancer; for GI50: read-out: Log10 GI50 (converted); for IC (TGI): read-out: Log10 TGI (converted)
KM12 = assay: NCI human tumor cell panel: KM12 (Colon Cancer); type: cell-based; details: KM12, Colon Cancer; for GI50: read-out: Log10 GI50 (converted); for IC (TGI): read-out: Log10 TGI (converted)
MDA-MB-231/ATCC = assay: NCI human tumor cell panel: MDA-MB-231/ATCC (Breast Cancer); type: cell-based; details: Homo sapiens, MDA-MB-231, MDA-MB-231/ATCC, Breast Cancer
SW-620 = assay: NCI human tumor cell panel: SW-620 (Colon Cancer); type: cell-based; details: SW-620, Colon Cancer
NCI-H522 = assay: NCI human tumor cell panel: NCI-H522 (Non-Small Cell Lung Cancer); details: for GI50: NCI-H522, read-out: Log10 GI50 (converted); for IC (TGI): NCI-H522, read-out: Log10 TGI
OVCAR-5 = assay: NCI human tumor cell panel: OVCAR-5 (Ovarian Cancer); type: cell-based; details: OVCAR-5, Ovarian Cancer; for GI50: read-out: Log10 GI50 (converted); for IC (TGI): read-out: Log10 TGI (converted)
MALME-3M = assay: NCI human tumor cell panel: MALME-3M (Melanoma); type: cell-based; details: MALME-3M, Melanoma; for GI50: read-out: Log10 GI50 (converted); for IC (TGI): read-out: Log10 TGI (converted)
NCI-H23 = assay: NCI human tumor cell panel: NCI-H23 (Non-Small Cell Lung Cancer); type: cell-based; details: NCI-H23, Non-Small Cell Lung Cancer; for GI50: read-out: Log10 GI50 (converted); for IC (TGI): read-out: Log10 TGI (converted)
RXF-393 = assay: NCI human tumor cell panel: RXF-393 (Renal Cancer); type: cell-based; details: RXF-393, Renal Cancer; for GI50: read-out: Log10 GI50 (converted); for IC (TGI): read-out: Log10 TGI (converted)
SK-MEL-2 = assay: NCI human tumor cell panel: SK-MEL-2 (Melanoma); type: cell-based; details: SK-MEL-2, Melanoma; for GI50: read-out: Log10 GI50 (converted); for IC (TGI): read-out: Log10 TGI (converted)
COLO 205 = assay: NCI human tumor cell panel: COLO 205 (Colon Cancer); type: cell-based; details: COLO 205, Colon Cancer; for GI50: read-out: Log10 GI50 (converted); for IC (TGI): read-out: Log10 TGI (converted)
SF-539 = assay: NCI human tumor cell panel: SF-539 (CNS Cancer); type: cell-based; details: SF-539, CNS Cancer; for GI50: read-out: Log10 GI50 (converted); for IC (TGI): read-out: Log10 TGI (converted)
OVCAR-4 = assay: NCI human tumor cell panel: OVCAR-4 (Ovarian Cancer); type: cell-based; details: OVCAR-4, Ovarian Cancer; for GI50: read-out: Log10 GI50 (converted); for IC (TGI): read-out: Log10 TGI (converted)
SR = assay: NCI human tumor cell panel: SR (Leukemia); type: cell-based; details: Leukemia
A498 = assay: NCI human tumor cell panel: A498 (Renal Cancer); type: cell-based; details: A498, Renal Cancer; for GI50: read-out: Log10 GI50 (converted); for IC (TGI): read-out: Log10 TGI (converted)
SF-268 = assay: NCI human tumor cell panel: SF-268 (CNS Cancer); type: cell-based; details: SF-268, CNS Cancer; for GI50: read-out: Log10 GI50 (converted); for IC (TGI): read-out: Log10 TGI (converted)
CAKI-1 = assay: NCI human tumor cell panel: CAKI-1 (Renal Cancer); type: cell-based; details: CAKI-1, Renal Cancer; for GI50: read-out: Log10 GI50 (converted); for IC (TGI): read-out: Log10 TGI (converted)
HL-60(TB) = assay: NCI human tumor cell panel: HL-60(TB) (Leukemia); type: cell-based; details: Leukemia; for GI50: read-out: Log10 GI50 (converted)
HCT-15 = assay: NCI human tumor cell panel: HCT-15 (Colon Cancer); type: cell-based; details: HCT-15, Colon Cancer; for GI50: read-out: Log10 GI50 (converted); for IC (TGI): read-out: Log10 TGI (converted)
[1] = tested on: panel of sixty different human tumor cell lines; assay: NCI human tumor cell panel: whole panel (mean graph summary)
[2] = read-out: Log10 GI50 (converted)
[3] = read-out: Log10 TGI (converted)

O=Cc1ccc(-c2ccc(-c3ccc(C=O)[se]3)[se]2)[se]1 [NSC 675245]
GI50 (UACC-62): 0.0646 µM
IC (TGI) (UACC-62): > 100 µM
GI50 (HOP-62): 51.3 µM
IC (TGI) (HOP-62): > 100 µM
GI50 (NCI-H322M): > 100 µM
IC (TGI) (NCI-H322M): > 100 µM
GI50 (SK-MEL-28): > 100 µM
IC (TGI) (SK-MEL-28): > 100 µM
GI50 (HT29): > 100 µM
IC (TGI) (HT29): > 100 µM
GI50 (SN12C): > 100 µM
IC (TGI) (SN12C): > 100 µM
GI50 (T-47D): 15.8 µM
IC (TGI) (T-47D): > 100 µM
GI50 (NCI-H226): 0.977 µM
IC (TGI) (NCI-H226): 3.63 µM
GI50 (EKVX): > 100 µM
IC (TGI) (EKVX): > 100 µM
GI50 (KM12): > 100 µM
IC (TGI) (KM12): > 100 µM
GI50 (MDA-MB-231/ATCC; [2]): > 100 µM
IC (TGI) (MDA-MB-231/ATCC; [3]): > 100 µM
GI50 (SW-620; [2]): 4.17 µM
IC (TGI) (SW-620; [3]): > 100 µM
GI50 (NCI-H522): 21.9 µM
IC (TGI) (NCI-H522): 45.7 µM
GI50 (OVCAR-5): 0.776 µM
IC (TGI) (OVCAR-5): > 100 µM
GI50 (MALME-3M): > 100 µM
IC (TGI) (MALME-3M): > 100 µM
GI50 (NCI-H23): > 100 µM
IC (TGI) (NCI-H23): > 100 µM
GI50 (RXF-393): 12 µM
IC (TGI) (RXF-393): > 100 µM
GI50 (SK-MEL-2): > 100 µM
IC (TGI) (SK-MEL-2): > 100 µM
GI50 (COLO 205): > 100 µM
IC (TGI) (COLO 205): > 100 µM
GI50 (SF-539): > 100 µM
IC (TGI) (SF-539): > 100 µM
GI50 (OVCAR-4): 2.63 µM
IC (TGI) (OVCAR-4): > 100 µM
GI50 (SR; [2]): > 100 µM
IC (TGI) (SR; [3]): > 100 µM
GI50 (A498): 0.309 µM
IC (TGI) (A498): 0.891 µM
GI50 (SF-268): > 100 µM
IC (TGI) (SF-268): > 100 µM
GI50 (CAKI-1): 0.269 µM
IC (TGI) (CAKI-1): 0.933 µM
GI50 (HL-60(TB)): > 100 µM
IC (TGI) (HL-60(TB); read-out: Log10 TGI): > 100 µM
GI50 (HCT-15): > 100 µM
IC (TGI) (HCT-15): > 100 µM

O=Cc1ccc(-c2ccc(-c3ccc[se]3)[se]2)[se]1 [NSC 675244]
GI50 (UACC-62): 0.0708 µM
IC (TGI) (UACC-62): 10.7 µM
GI50 (HOP-62): 12 µM
IC (TGI) (HOP-62): 29.5 µM
GI50 (NCI-H322M): 13.2 µM
IC (TGI) (NCI-H322M): 28.2 µM
GI50 (SK-MEL-28): 13.2 µM
IC (TGI) (SK-MEL-28): 26.9 µM
GI50 (HT29): 3.24 µM
IC (TGI) (HT29): 13.2 µM
GI50 (SN12C): 10 µM
IC (TGI) (SN12C): 22.4 µM
GI50 (T-47D): 11.2 µM
IC (TGI) (T-47D): 23.4 µM
GI50 (NCI-H226): 2.24 µM
IC (TGI) (NCI-H226): 5.13 µM
GI50 (EKVX): 25.1 µM
IC (TGI) (EKVX): 64.6 µM
GI50 (KM12): 6.31 µM
IC (TGI) (KM12): 19.5 µM
GI50 (NCI-H522): 5.25 µM
IC (TGI) (NCI-H522): 17.4 µM
GI50 (OVCAR-5): 0.55 µM
IC (TGI) (OVCAR-5): 13.2 µM
GI50 (MALME-3M): 12.6 µM
IC (TGI) (MALME-3M): 28.2 µM
GI50 (NCI-H23): 13.5 µM
IC (TGI) (NCI-H23): 30.9 µM
GI50 (RXF-393): 1.95 µM
IC (TGI) (RXF-393): 8.13 µM
GI50 ([1]; Homo sapiens, read-out: Log10 GI50, cell line not given (converted)): 3.8 µM
CC50 ([1]; Homo sapiens, read-out: Log10 LC50, cell line not given (converted)): > 100 µM
Log10 GI50 ([1]; cell line not given): −5.39
Log10 TGI ([1]; cell line not given): −4.45
GI50 (SK-MEL-2): 16.6 µM
IC (TGI) (SK-MEL-2): 45.7 µM
GI50 (COLO 205): 3.16 µM
IC (TGI) (COLO 205): 12 µM
GI50 (SF-539): 17 µM
IC (TGI) (SF-539): 33.1 µM
GI50 (OVCAR-4): 1.58 µM
IC (TGI) (OVCAR-4): 14.8 µM
GI50 (A498): 1.41 µM
IC (TGI) (A498): 2.95 µM
GI50 (SF-268): 4.47 µM
IC (TGI) (SF-268): 57.5 µM
GI50 (CAKI-1): 0.204 µM
IC (TGI) (CAKI-1): 0.708 µM
GI50 (HL-60(TB)): 2.45 µM
GI50 (HCT-15): 7.41 µM
IC (TGI) (HCT-15): 26.3 µM
